Tests used:
Test in all cases: Kinase profiling
Format in all cases: biochemical
[1] = target: T1, CAMK4 (Homo sapiens, UniProt Q16566)
T1 construct: purchased ProQinase (Freiburg, Germany)
T1 sequence (Q16566 1-473): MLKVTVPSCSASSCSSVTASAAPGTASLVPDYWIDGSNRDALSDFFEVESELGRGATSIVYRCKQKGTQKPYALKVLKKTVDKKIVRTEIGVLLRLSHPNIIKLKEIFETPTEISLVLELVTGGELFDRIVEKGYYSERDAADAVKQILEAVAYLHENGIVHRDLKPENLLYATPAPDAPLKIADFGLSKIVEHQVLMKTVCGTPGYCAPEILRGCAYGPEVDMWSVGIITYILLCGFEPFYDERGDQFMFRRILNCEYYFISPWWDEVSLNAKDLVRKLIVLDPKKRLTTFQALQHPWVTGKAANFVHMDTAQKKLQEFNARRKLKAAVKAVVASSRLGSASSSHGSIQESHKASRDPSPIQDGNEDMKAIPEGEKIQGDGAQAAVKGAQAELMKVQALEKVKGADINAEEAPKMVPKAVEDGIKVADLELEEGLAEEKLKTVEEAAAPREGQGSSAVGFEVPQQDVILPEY
Method: (§1) The analysis was performed by ProQinase (Freiburg, Germany).

[2] = target: T2, CHK2 (Homo sapiens, UniProt O96017)
T2 construct: purchased ProQinase (Freiburg, Germany)
Method: as §1

[3] = target: T3, CK2alpha2 (Homo sapiens, UniProt P19784)
T3 construct: purchased ProQinase (Freiburg, Germany)
Method: as §1

[4] = target: T4, DYRK3 (Homo sapiens, UniProt O43781)
T4 construct: purchased ProQinase (Freiburg, Germany)
T4 sequence (O43781 1-588): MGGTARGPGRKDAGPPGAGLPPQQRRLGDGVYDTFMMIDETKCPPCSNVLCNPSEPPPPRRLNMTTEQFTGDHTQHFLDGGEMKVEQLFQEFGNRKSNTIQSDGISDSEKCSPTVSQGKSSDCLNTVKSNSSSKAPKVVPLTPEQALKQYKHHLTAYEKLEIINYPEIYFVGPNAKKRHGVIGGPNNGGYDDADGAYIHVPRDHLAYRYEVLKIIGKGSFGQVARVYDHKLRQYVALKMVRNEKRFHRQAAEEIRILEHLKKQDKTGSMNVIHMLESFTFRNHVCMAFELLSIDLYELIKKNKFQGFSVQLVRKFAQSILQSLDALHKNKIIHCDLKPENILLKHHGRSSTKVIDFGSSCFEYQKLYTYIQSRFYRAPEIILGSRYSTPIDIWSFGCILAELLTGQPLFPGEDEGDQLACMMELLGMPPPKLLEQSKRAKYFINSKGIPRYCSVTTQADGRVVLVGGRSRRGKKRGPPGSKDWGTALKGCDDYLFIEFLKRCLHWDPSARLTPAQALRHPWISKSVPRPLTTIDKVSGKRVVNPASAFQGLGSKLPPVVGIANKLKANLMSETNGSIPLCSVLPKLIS
Method: as §1

[5] = target: T5, EPHA2 (Homo sapiens, UniProt P29317)
T5 construct: purchased ProQinase (Freiburg, Germany)
T5 sequence (P29317 24-976): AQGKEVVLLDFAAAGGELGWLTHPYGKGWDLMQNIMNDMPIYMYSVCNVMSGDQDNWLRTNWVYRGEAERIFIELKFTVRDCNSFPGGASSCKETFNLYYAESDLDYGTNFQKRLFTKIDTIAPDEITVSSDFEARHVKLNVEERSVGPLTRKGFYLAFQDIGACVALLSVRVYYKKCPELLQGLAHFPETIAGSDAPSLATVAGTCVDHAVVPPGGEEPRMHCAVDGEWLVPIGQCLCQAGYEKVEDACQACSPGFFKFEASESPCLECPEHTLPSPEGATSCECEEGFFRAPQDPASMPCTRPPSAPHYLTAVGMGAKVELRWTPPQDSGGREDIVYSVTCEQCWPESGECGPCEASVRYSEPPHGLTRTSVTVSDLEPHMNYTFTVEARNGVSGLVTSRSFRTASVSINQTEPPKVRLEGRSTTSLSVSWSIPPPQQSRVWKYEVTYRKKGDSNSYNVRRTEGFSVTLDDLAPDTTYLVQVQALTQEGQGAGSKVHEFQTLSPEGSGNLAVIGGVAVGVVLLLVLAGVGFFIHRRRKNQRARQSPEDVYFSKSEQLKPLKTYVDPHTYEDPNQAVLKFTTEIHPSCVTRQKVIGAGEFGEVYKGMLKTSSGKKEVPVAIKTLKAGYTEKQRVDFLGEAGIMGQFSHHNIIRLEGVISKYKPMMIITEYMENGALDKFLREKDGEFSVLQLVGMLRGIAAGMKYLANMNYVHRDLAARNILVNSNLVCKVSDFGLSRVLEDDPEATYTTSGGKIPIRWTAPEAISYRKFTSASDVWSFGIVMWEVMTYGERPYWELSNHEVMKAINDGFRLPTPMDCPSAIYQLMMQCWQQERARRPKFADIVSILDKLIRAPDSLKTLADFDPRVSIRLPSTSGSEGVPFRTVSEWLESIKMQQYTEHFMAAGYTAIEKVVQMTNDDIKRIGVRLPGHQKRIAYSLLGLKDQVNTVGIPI
Method: as §1

[6] = target: T6, ERBB4 (Homo sapiens, UniProt Q15303)
T6 construct: purchased ProQinase (Freiburg, Germany)
T6 sequence (Q15303 26-1308): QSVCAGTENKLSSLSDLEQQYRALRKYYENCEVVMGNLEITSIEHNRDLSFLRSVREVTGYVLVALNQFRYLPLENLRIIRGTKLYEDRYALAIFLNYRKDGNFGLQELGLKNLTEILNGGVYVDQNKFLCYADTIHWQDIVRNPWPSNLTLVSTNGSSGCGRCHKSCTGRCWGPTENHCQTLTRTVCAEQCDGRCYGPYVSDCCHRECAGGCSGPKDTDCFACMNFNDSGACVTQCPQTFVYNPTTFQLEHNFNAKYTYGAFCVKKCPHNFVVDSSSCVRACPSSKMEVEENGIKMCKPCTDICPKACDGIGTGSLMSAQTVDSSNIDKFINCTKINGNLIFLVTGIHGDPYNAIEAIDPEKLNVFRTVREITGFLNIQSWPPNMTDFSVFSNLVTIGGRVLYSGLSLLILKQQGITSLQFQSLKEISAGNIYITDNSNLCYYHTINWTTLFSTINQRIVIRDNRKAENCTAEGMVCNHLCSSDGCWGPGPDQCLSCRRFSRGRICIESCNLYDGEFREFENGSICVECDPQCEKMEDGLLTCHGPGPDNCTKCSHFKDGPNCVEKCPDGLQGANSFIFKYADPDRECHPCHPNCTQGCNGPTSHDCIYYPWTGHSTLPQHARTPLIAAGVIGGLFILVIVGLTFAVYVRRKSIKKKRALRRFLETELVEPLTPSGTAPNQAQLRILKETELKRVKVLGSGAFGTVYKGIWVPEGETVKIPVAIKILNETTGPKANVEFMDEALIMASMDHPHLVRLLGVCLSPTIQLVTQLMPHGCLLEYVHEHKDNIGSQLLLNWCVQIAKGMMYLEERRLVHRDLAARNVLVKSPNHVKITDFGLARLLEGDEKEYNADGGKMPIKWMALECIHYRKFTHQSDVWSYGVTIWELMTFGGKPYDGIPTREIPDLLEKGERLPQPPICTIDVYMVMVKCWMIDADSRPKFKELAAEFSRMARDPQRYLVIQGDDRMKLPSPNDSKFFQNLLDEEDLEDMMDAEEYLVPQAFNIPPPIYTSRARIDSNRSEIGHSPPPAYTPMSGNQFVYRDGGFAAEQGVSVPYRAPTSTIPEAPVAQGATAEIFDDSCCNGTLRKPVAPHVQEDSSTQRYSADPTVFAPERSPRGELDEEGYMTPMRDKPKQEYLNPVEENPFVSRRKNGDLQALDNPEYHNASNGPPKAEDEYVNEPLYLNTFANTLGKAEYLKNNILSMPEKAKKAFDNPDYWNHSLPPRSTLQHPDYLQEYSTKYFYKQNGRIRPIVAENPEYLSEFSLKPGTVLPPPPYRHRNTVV
Method: as §1

[7] = target: T7, FYN (Homo sapiens, UniProt P06241)
T7 construct: purchased ProQinase (Freiburg, Germany)
T7 sequence (P06241 whole entry): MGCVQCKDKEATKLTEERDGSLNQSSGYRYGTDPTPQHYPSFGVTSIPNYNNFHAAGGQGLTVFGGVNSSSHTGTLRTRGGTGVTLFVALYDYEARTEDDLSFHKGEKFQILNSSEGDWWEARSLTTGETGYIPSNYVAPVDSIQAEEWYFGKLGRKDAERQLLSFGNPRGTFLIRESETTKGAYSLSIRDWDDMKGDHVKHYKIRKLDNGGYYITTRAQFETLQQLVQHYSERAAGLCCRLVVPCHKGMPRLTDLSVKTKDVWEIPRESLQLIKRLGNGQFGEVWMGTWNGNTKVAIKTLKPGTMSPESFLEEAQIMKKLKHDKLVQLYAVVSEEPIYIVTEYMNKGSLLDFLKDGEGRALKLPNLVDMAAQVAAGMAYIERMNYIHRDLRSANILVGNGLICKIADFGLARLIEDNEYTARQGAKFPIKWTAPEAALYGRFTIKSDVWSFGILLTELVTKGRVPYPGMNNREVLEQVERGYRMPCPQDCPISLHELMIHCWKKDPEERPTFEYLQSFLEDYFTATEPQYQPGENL
Method: as §1

[8] = target: T8, GRK6 (Homo sapiens, UniProt P43250)
T8 construct: purchased ProQinase (Freiburg, Germany)
Method: as §1

[9] = target: T9, HCK (Homo sapiens, UniProt P08631)
T9 construct: purchased ProQinase (Freiburg, Germany)
T9 sequence (P08631 whole entry): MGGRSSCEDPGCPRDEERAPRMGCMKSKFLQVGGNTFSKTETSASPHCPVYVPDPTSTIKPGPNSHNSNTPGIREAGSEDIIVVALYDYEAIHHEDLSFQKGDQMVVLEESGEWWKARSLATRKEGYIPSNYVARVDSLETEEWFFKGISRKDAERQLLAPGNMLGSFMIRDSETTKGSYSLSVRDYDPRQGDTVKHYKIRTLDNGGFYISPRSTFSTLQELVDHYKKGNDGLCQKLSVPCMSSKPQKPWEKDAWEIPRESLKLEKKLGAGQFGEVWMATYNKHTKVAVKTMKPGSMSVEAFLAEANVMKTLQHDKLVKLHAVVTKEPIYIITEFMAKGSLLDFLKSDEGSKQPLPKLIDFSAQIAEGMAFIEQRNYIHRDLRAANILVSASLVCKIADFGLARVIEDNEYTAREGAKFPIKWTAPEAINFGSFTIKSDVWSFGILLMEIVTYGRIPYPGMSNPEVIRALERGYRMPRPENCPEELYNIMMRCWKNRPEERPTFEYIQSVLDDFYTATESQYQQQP
Method: as §1

[10] = target: T10, JNK3 (Homo sapiens, UniProt P53779)
T10 construct: purchased ProQinase (Freiburg, Germany)
Method: as §1

[11] = target: T11, KIT (Homo sapiens, UniProt P10721)
T11 construct: purchased ProQinase (Freiburg, Germany)
T11 sequence (P10721 26-976): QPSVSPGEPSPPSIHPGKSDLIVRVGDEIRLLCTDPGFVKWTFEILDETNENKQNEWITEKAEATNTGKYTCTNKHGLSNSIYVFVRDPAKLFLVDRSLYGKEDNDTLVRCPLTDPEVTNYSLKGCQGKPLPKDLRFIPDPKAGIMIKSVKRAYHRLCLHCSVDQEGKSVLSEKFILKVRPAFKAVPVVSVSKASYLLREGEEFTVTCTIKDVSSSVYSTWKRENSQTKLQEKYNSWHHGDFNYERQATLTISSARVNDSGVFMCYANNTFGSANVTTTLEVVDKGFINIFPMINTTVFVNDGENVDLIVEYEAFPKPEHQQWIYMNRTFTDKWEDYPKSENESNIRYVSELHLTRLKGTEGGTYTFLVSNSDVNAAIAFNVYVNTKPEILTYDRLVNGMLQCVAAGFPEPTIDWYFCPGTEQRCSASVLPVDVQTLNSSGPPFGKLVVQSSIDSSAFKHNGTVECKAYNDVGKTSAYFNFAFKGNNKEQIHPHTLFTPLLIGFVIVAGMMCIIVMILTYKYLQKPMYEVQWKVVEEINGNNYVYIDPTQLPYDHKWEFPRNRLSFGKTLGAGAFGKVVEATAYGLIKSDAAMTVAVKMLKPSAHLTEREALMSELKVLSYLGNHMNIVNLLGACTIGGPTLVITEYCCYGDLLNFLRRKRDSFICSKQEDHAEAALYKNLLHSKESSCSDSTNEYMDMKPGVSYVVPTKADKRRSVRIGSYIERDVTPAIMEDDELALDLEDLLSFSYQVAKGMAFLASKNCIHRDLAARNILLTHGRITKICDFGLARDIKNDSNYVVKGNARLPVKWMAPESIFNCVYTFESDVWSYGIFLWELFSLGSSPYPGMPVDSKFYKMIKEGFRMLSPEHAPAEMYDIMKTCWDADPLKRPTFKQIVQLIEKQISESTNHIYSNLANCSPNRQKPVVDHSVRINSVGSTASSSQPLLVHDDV
Method: as §1

[12] = target: T12, LCK (Homo sapiens, UniProt P06239)
T12 construct: purchased ProQinase (Freiburg, Germany)
T12 sequence (P06239 whole entry): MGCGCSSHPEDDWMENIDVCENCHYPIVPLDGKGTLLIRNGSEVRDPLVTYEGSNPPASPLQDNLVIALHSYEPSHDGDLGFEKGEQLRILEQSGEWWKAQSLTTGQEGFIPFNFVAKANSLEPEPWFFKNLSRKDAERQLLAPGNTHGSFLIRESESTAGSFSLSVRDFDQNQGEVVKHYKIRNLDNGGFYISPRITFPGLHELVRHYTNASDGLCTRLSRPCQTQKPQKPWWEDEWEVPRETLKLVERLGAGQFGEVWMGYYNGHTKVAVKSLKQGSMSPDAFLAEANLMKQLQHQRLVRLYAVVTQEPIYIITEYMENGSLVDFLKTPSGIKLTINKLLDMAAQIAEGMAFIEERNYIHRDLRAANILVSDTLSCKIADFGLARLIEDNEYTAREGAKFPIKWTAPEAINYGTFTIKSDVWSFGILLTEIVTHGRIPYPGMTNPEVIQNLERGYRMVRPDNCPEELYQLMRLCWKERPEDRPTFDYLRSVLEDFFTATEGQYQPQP
Method: as §1

[13] = target: T13, MKNK1 (Homo sapiens, UniProt Q9BUB5)
T13 construct: purchased ProQinase (Freiburg, Germany)
Method: as §1

[14] = target: T14, MST1 (Homo sapiens, UniProt Q13043)
T14 construct: purchased ProQinase (Freiburg, Germany)
T14 sequence (Q13043 1-487): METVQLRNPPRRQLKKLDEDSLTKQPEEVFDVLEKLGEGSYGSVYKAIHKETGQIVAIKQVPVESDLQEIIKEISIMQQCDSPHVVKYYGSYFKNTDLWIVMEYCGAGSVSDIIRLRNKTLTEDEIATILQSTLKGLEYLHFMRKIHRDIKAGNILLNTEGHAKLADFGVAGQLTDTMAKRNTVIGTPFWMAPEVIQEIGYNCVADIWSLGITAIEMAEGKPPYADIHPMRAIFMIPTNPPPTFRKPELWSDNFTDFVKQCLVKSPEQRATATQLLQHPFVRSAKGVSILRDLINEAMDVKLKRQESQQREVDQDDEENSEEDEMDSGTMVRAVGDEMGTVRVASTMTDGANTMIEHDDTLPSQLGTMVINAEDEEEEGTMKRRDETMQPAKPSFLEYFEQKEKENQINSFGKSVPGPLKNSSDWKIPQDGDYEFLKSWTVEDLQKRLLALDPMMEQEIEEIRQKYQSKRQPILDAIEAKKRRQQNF
Method: as §1

[15] = target: T15, MST3 (Homo sapiens, UniProt Q9Y6E0)
T15 construct: purchased ProQinase (Freiburg, Germany)
Method: as §1

[16] = target: T16, MYLK2 (Homo sapiens, UniProt Q9H1R3)
T16 construct: purchased ProQinase (Freiburg, Germany)
Method: as §1

[17] = target: T17, NEK7 (Homo sapiens, UniProt Q8TDX7)
T17 construct: purchased ProQinase (Freiburg, Germany)
T17 sequence (Q8TDX7 whole entry): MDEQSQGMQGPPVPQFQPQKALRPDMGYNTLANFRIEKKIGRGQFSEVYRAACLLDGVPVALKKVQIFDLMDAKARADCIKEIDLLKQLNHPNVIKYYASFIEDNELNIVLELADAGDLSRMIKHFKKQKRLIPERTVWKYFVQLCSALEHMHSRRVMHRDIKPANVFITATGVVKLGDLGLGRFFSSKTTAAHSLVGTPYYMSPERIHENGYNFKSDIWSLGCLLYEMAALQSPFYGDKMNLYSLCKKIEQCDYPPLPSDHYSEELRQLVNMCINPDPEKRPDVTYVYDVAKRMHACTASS
Method: as §1

[18] = target: T18, PKCalpha (Homo sapiens, UniProt P17252)
T18 construct: purchased ProQinase (Freiburg, Germany)
Method: as §1

[19] = target: T19, SNK (Homo sapiens, UniProt Q9NYY3)
T19 construct: purchased ProQinase (Freiburg, Germany)
Method: as §1

`O=C(Nc1ccc(F)c(Nc2ccc3c(c2)CCCCC3=O)c1)c1cccc(F)c1` [Compound 109] was tested, and the Residual activity ([1]; 1.0E-05 M) was 89 % of control, the Residual activity ([1]; 1.0E-06 M) was 97 % of control and the Residual activity ([2]; 1.0E-05 M) was 74 % of control. The Residual activity ([2]; 1.0E-06 M) was 94 % of control, the Residual activity ([3]; 1.0E-05 M) was 118 % of control and the Residual activity ([3]; 1.0E-06 M) was 119 % of control. For the same molecule, the Residual activity ([4]; 1.0E-05 M) was 88 % of control, the Residual activity ([4]; 1.0E-06 M) was 96 % of control and the Residual activity ([5]; 1.0E-05 M) was 107 % of control. The Residual activity ([5]; 1.0E-06 M) was 105 % of control, the Residual activity ([6]; 1.0E-05 M) was 81 % of control and the Residual activity ([6]; 1.0E-06 M) was 98 % of control. The Residual activity ([7]; 1.0E-05 M) was 83 % of control, the Residual activity ([7]; 1.0E-06 M) was 104 % of control and the Residual activity ([8]; 1.0E-05 M) was 121 % of control. For the same molecule, the Residual activity ([8]; 1.0E-06 M) was 113 % of control, the Residual activity ([9]; 1.0E-05 M) was 76 % of control and the Residual activity ([9]; 1.0E-06 M) was 99 % of control. For the same molecule, the Residual activity ([10]; 1.0E-05 M) was 92 % of control, the Residual activity ([10]; 1.0E-06 M) was 83 % of control and the Residual activity ([11]; 1.0E-05 M) was 78 % of control. For the same molecule, the Residual activity ([11]; 1.0E-06 M) was 88 % of control, the Residual activity ([12]; 1.0E-05 M) was 84 % of control and the Residual activity ([12]; 1.0E-06 M) was 102 % of control. For the same molecule, the Residual activity ([13]; 1.0E-05 M) was 91 % of control, the Residual activity ([13]; 1.0E-06 M) was 92 % of control and the Residual activity ([14]; 1.0E-05 M) was 98 % of control. For the same molecule, the Residual activity ([14]; 1.0E-06 M) was 103 % of control, the Residual activity ([15]; 1.0E-05 M) was 103 % of control and the Residual activity ([15]; 1.0E-06 M) was 106 % of control. For the same molecule, the Residual activity ([16]; 1.0E-05 M) was 79 % of control, the Residual activity ([16]; 1.0E-06 M) was 85 % of control and the Residual activity ([17]; 1.0E-05 M) was 121 % of control. The Residual activity ([17]; 1.0E-06 M) was 108 % of control, the Residual activity ([18]; 1.0E-05 M) was 73 % of control and the Residual activity ([18]; 1.0E-06 M) was 92 % of control. The Residual activity ([19]; 1.0E-05 M) was 92 % of control and the Residual activity ([19]; 1.0E-06 M) was 94 % of control.
In the case of `O=C(Cc1ccccc1)Nc1ccc(F)c(Nc2ccc3c(c2)CCCCC3=O)c1` [Compound 100], the Residual activity ([1]; 1.0E-05 M) is reported as 97 % of control, the Residual activity ([1]; 1.0E-06 M) is reported as 102 % of control and the Residual activity ([2]; 1.0E-05 M) is reported as 72 % of control. For the same molecule, the Residual activity ([2]; 1.0E-06 M) was 92 % of control, the Residual activity ([3]; 1.0E-05 M) was 134 % of control and the Residual activity ([3]; 1.0E-06 M) was 137 % of control. The Residual activity ([4]; 1.0E-05 M) was 104 % of control, the Residual activity ([4]; 1.0E-06 M) was 98 % of control and the Residual activity ([5]; 1.0E-05 M) was 94 % of control. The Residual activity ([5]; 1.0E-06 M) was 116 % of control, the Residual activity ([6]; 1.0E-05 M) was 71 % of control and the Residual activity ([6]; 1.0E-06 M) was 97 % of control. The Residual activity ([7]; 1.0E-05 M) was 55 % of control, the Residual activity ([7]; 1.0E-06 M) was 90 % of control and the Residual activity ([8]; 1.0E-05 M) was 114 % of control. The Residual activity ([8]; 1.0E-06 M) was 117 % of control, the Residual activity ([9]; 1.0E-05 M) was 95 % of control and the Residual activity ([9]; 1.0E-06 M) was 107 % of control. For the same molecule, the Residual activity ([10]; 1.0E-05 M) was 119 % of control, the Residual activity ([10]; 1.0E-06 M) was 96 % of control and the Residual activity ([11]; 1.0E-05 M) was 78 % of control. The Residual activity ([11]; 1.0E-06 M) was 87 % of control, the Residual activity ([12]; 1.0E-05 M) was 66 % of control and the Residual activity ([12]; 1.0E-06 M) was 107 % of control. The Residual activity ([13]; 1.0E-05 M) was 95 % of control, the Residual activity ([13]; 1.0E-06 M) was 90 % of control and the Residual activity ([14]; 1.0E-05 M) was 92 % of control. The Residual activity ([14]; 1.0E-06 M) was 102 % of control, the Residual activity ([15]; 1.0E-05 M) was 114 % of control and the Residual activity ([15]; 1.0E-06 M) was 122 % of control. For the same molecule, the Residual activity ([16]; 1.0E-05 M) was 82 % of control, the Residual activity ([16]; 1.0E-06 M) was 93 % of control and the Residual activity ([17]; 1.0E-05 M) was 118 % of control. The Residual activity ([17]; 1.0E-06 M) was 109 % of control, the Residual activity ([18]; 1.0E-05 M) was 82 % of control and the Residual activity ([18]; 1.0E-06 M) was 95 % of control. For the same molecule, the Residual activity ([19]; 1.0E-05 M) was 90 % of control and the Residual activity ([19]; 1.0E-06 M) was 102 % of control.

From publication PMC9030254, “Target Hopping from Protein Kinases to PXR: Identification of Small-Molecule Protein Kinase Inhibitors as Selective Modulators of Pregnane X Receptor from TüKIC Library” (Cells, 2022)
